Test results from US20220370467A1, “USING OF A PPAR-DELTA AGONIST IN THE TREATMENT OF KIDNEY DISEASE” (Reneo Pharmaceuticals, Inc., priority 2019, published 2022).

Key:
hPPARα = target: T1, hPPARα (Homo sapiens, UniProt Q07869); experiment: in vitro assay on human PPAR subtypes (transactivation): hPPARα; type: cell-based
T1 construct: expressed in transfected cells; host or cells: HEK293
T1 sequence (Q07869 239-466 limits assumed): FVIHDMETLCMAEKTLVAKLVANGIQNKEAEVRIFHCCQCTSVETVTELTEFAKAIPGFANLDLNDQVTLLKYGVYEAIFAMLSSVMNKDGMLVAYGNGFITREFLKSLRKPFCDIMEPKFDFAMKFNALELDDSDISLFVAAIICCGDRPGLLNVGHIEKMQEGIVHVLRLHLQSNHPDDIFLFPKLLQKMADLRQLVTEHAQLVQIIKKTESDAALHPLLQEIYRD
From the text: “Activation” here is defined as the abovementioned downstream response, which in the case of PPAR's is gene transcription. Gene transcription may be measured indirectly as downstream production of proteins reflective of the activation of the particular PPAR subtype under study. Alternatively, an artificial reporter construct may be employed to study the activation of the individual PPAR's expressed in cells. The ligand binding domain of the particular receptor to be studied may be fused to the DNA binding domain of a transcription factor, which produces convenient laboratory readouts, such as the yeast GAL4 transcription factor DNA binding domain. The fusion protein may be transfected into a laboratory cell line along with a Gal4 enhancer, which effects the expression of the luciferase protein. When such a system is transfected into a laboratory cell line, binding of a receptor agonist to the fusion protein will result in light emission.
The PPAR transient transactivation assay may be based on transient transfection into human HEK293 cells of two plasmids encoding a chimeric test protein and a reporter protein respectively. […] The amount of luciferase protein is measured by light emission after addition of the appropriate substrate. […]

2K1C rat clipped kidney = settings: cited from earlier work

agonist type on PPARα (hPPARα): partial agonist
activity on PPARα in transactivation assays (hPPARα; in some cases): negligible activity
SMILES: Cc1cc(OC/C=C(/c2ccc(F)cc2)c2ccc(C#CCN3CCOCC3)cc2)ccc1OCC(=O)O [Compound 1, (E)-[4-[3-(4-Fluorophenyl)-3-[4-[3-(morpholin-4-yl)propynyl]phenyl]allyloxy]-2-methyl-phenoxy]acetic acid]
levels of MCAD, COXIV, TFAM and Parkin proteins and AMPK activation (2K1C rat clipped kidney; 2K1C rat kidneys): remained at the physiological levels
mitochondrial biogenesis and autophagy (PGC1-a, LC3-II, ATG5) (2K1C rat clipped kidney; 2K1C rat kidneys): inhibited similarly in both treated and untreated
BNIP3 protein in the mitochondrial fraction (2K1C rat clipped kidney; 2K1C rat, compared to untreated animals): decreased notably
nuclear amounts of oxidative stress-responsive proteins NRF1 and NRF2 (2K1C rat clipped kidney; 2K1C rat, treated kidneys): below physiological levels
histochemical features of necrosis in clipped kidney (2K1C rat clipped kidney; 2K1C rat, treated vs untreated clipped kidneys): did not exhibit any histochemical features of necrosis
fibrotic lesions in clipped kidney (2K1C rat clipped kidney; 2K1C rat): present only in perivascular areas
oxidative stress in kidneys (2K1C rat clipped kidney; 2K1C rat): attenuated
